# Assays:
# [1] = Metabolite profile by LC-MS in pooled urine of chimeric mice with humanized liver after repeated oral onapristone; assay type: in vivo; details: onapristone 30 mg/kg/day, D11
# Procedure: Metabolites were identified using liquid chromatography-mass spectrometry (LC-MS) and mass spectroscopy on pooled plasma, urine, and liver samples. Twenty-seven metabolites were identified in urine samples across dose and sampling time (e.g., 0-24 hours of dosing for each time point).
# Mice with humanized livers were generated as described by Meuleman et al., Hepatology 2005, 41 (4):847-856. This humanized liver model is routinely used to assess the metabolism and toxicities of drugs. Kamimura H, Nakada N, Suzuki K, et al. Assessment of chimeric mice with humanized liver as a tool for predicting circulating human metabolites. Drug Metab Pharmacokinet 2010;25(3):223-235. Two weeks following birth, mice were transplanted with primary hepatocytes isolated from the liver of a donor (purchased from BD Genetest). All animals were housed and kept under standard animal protocols. Animals also were observed during the experiment for signs of illness, abnormal behavior and appearance, and any sign of toxicity, or mortality. Animals were treated orally by gavage with 0, 10, and 30 mg/kg of drug once a day up to 31 days. At the end of treatments, blood samples, urine, and liver were collected and processed for LC-MS/MS metabolite identification and profiling. […]
# [2] = molecular target: T1, progesterone receptor (PR) (Homo sapiens, UniProt P06401); assay: PRE-luciferase reporter assay in 293T and WMPY cells transfected with PR; assay type: cell-based; details: 100 nM
# T1 construct: expressed in transfected cells; host or cells: 293T (human embryonic kidney cells) and WMPY (prostatic stromal cell line)
# T1 sequence (P06401 1-933): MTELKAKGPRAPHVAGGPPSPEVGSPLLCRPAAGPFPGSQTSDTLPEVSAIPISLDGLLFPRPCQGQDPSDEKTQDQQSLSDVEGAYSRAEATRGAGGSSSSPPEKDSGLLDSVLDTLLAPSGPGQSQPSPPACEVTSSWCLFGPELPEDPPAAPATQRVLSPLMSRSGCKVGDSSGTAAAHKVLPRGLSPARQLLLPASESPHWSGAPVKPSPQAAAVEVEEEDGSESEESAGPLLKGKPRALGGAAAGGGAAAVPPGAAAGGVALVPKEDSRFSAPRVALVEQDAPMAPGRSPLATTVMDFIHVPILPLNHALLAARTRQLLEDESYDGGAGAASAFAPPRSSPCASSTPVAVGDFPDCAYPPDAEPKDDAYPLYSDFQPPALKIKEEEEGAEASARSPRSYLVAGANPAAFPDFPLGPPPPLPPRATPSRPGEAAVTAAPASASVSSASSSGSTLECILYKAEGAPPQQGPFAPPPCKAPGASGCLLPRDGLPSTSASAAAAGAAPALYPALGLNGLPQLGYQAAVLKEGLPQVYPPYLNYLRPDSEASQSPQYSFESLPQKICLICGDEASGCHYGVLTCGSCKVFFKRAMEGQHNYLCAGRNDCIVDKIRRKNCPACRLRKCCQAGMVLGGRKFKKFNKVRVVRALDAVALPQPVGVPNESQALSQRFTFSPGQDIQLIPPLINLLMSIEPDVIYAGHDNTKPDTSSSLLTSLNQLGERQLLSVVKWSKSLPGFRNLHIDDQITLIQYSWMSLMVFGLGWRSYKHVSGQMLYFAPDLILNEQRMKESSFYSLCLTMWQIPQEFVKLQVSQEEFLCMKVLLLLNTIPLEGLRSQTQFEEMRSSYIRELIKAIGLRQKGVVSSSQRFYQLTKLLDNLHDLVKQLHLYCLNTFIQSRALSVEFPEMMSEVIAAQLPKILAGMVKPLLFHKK
# Procedure: 293T and WMPY cells were transfected with progesterone receptor (PR) and PRE-luciferase reporter. […] Experiments were repeated in triplicate. […] Because of the metabolic stability of M1 compared to ONA, a blood circulation of 100 nM M1 can be achieved after dosing M1 at 1 mg.
# [3] = in vitro; details: for Vmax for metabolism: Table 1 Vmax 1; for P450 enzyme catalyzing the metabolism: microsomes
# Procedure: Mohutsky M, Wrighton S, Ring B. In vitro metabolism: subcellular fractions. In: Pearson P, Wienkers L, editors. Handbook of drug metabolism. New York: Informa Healthcare; 2009. pp. 445-464. […] The incubation was conducted at various time points 0-60 min at 37° C. At the end of incubation, the reactions were quenched, processed, and analyzed by LC-MS/MS.
# [4] = assay type: in vitro ADME, human
# Source text: In: Pearson P, Wienkers L, editors. Handbook of drug metabolism. New York: Informa Healthcare; 2009. pp. 445-464.
# [5] = Concentration in blood circulation after dosing
"concentration that can be achieved in blood circulation ([5]; after dosing M1 at 1 mg, inferred from metabolic stability of M1)",concentration achieved in blood circulation ([5]; after dosing onapristone at 10 mg QD),"P450 enzyme catalyzing the metabolism ([3]; both, human)","Km ([3]; human, Km 1)","Km ([3]; human, Km 2)","Km ([3]; male, human, Km 1)","Km ([3]; male, human, Km 2)",SMILES,metabolite detected by LC-MS in urine [1],inhibition of PR transcriptional activity [2],Vmax 1 ([3]; female human liver microsomes),Vmax 2 ([3]; female human liver microsomes),Vmax for metabolism ([3]; females),Vmax 1 ([3]; male human liver microsomes),Vmax 2 ([3]; male human liver microsomes),Vmax for metabolism ([3]; males),P450 enzyme catalyzing the metabolism [3],number of metabolites formed in vitro [4]
–,–,–,–,–,–,–,"CN(C)c1ccc([C@H]2C[C@]3(C)[C@@H](CC[C@]3(O)CCCO)[C@@H]3CCC4=CC(=O)CCC4=C32)cc1 [onapristone, Onapristone, reference compound]",Ls,fully inhibit,1517 pmol/min/mg,8715 pmol/min/mg,1517 pmol/min/mg microsomal protein,1292 pmol/min/mg,7213 pmol/min/mg,1292 pmol/min/mg microsomal protein,CYP3A,nine
100 nM,10 nM,CYP3A and CYP2C,0.75 µM,175 µM,0.96 µM,129 µM,"CNc1ccc([C@H]2C[C@]3(C)[C@@H](CC[C@]3(O)CCCO)[C@@H]3CCC4=CC(=O)CCC4=C32)cc1 [Metabolite M1, (8S, 11R,13R,14S,17S)-17-hydroxy-17-(3-hydroxypropyl)-13-methyl-11-(4-(methylamino)phenyl)-6,7,8,11,12,13,14,15,16,17-decahydro-1H-cyclopenta[a]phenanthren-3(2H)-one]",–,fully inhibit,106 pmol/min/mg,738 pmol/min/mg,106 pmol/min/mg microsomal protein,72 pmol/min/mg,748 pmol/min/mg,72 pmol/min/mg microsomal protein,–,–

# From patent publication US20170266204A1 (ARNO THERAPEUTICS, INC., priority 2016, published 2017)
